# According to patent US20140134178A1, “PHOSPHORYLATION OF HISTONES AND USES THEREOF” (H. LEE MOFFITT CANCER CENTER AND RESEARCH INSTITUTE, priority 2012, published 2014):
# Entries after “also recorded” stand apart in the source; their conditions may differ.
# How the values were obtained:
# pTyr267-AR = assay: ChIP-qPCR for pTyr267-AR binding to PSA, NKX3.1 and TMPRSS2 AREs in LAPC4 cells; type: cell-based; conditions: 0.8 μM, 16 hr
# Method: LAPC4 cells were treated with DHT (5 nM, 16 hr), EGF (10 ng/ml, 1 hr), or EGF and AIM-100 (0.8 μM, 16 hr) and ChIP analysis for pTyr267-AR binding to the PSA, NKX3.1 and TMPRSS2 AREs was performed followed by qPCR. Ack1 inhibition by AIM-100 suppressed recruitment of pTyr-AR to PSA, NKX3,1 and TMPRSS2 promoters (FIGS. 8A-8C).
# [1] = test system: LNCaP-caAck expressing cells; assay: Prostate xenograft tumor growth, LNCaP-caAck cells in castrated nude male mice; type: in vivo; conditions: 4 mg/kg of body weight per injection, five times
# Method: Castrated nude male mice were injected with LNCaP-caAck expressing cells. Mice were injected with AIM-100 (4 mg/kg of body weight per injection) on five times (n=8) and tumor volumes were measured.
# Ack1 [2] = molecular target: T1, Ack1 (Homo sapiens, UniProt Q07912); type: cell-based; set-up: endogenous in cells; host or cells: LAPC4
# T1 sequence (Q07912 whole entry): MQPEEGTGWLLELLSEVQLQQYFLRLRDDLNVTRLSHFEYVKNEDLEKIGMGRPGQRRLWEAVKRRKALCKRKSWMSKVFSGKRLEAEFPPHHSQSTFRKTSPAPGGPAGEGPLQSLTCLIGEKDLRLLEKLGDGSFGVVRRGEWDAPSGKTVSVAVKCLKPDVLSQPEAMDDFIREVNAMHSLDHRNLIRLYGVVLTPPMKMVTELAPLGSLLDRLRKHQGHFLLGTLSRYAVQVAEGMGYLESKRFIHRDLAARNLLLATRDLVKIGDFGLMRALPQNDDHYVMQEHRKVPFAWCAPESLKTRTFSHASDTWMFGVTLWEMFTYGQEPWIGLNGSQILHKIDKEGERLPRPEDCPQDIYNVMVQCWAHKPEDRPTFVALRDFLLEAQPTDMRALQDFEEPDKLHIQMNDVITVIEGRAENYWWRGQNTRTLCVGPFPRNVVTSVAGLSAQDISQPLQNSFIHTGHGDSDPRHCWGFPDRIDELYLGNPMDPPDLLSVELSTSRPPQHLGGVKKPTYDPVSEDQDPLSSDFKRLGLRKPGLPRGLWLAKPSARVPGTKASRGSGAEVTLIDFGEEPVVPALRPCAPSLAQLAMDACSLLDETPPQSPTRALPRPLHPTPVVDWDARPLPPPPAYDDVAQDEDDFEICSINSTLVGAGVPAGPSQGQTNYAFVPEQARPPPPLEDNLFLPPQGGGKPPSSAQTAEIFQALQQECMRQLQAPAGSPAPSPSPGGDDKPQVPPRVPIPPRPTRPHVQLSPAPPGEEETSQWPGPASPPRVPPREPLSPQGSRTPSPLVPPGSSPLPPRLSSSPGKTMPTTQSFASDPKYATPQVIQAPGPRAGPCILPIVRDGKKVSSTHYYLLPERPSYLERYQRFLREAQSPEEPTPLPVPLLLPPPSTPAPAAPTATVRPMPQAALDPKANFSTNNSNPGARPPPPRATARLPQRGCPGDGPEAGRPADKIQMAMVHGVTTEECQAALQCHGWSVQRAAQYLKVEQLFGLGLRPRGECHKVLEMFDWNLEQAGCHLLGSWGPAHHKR
# Method: The prostate cancer derived cells, LAPC4 were treated with AIM-100 (7 uM, 16 hours). The equal amount of cell lysates were subjected to immunoblotting with H3K9me3 and histone H3 antibodies. […] The histone H3 antibodies were used as a control to indicate equal amount of protein.
# LAPC4 cells were treated with EGF or EGF and AIM-100 and the lysates were immunoblotted with H3K9 dimethyl and H3K27 dimethyl antibodies.
# Ack1 [3] = molecular target: T1, Ack1; type: biochemical; set-up: endogenous in cells; host or cells: LAPC4; conditions: purified Ack1, H4 peptide, ELISA with pY88 antibodies
# Method: WEE1 and Ack1 are two non-receptor tyrosine kinases or NRTKs that have known nuclear functions. To determine whether WEE1 and Ack1 can directly target H4 for Tyr88-phosphorylation, this study performed in vitro kinase assay. In brief, the Streptavidin coated 96-well plates (R&D systems) were incubated with biotinylated H4-derived peptide […] (SEQ ID NO: 64) for 1 hour. The plates were washed and the purified WEE1 or Ack1 were added in kinase buffer (20 mM HEPES, 150 mM NaCl, 0.5% Triton X-100, 10% Glycerol, phosphatase and protease inhibitors) containing ATP and MgCl2. After 2 hours of incubation, plates were washed with phosphate buffered saline containing 0.1% Tween 20 (PBST) and blocked in 3% BSA. The pY88-H4 antibodies (at 1:500 dilution) were added and incubated for 1 hour. Unbound antibodies were washed and HRP-conjugated anti-mouse secondary Antibodies (1:2000) were added. Magnitude of phosphorylation was detected using developer solution (OPD tablets, Sigma) and the plates were read at 450 nm. As a negative control, no kinase and no peptide reactions were used. The biotinylated phosphopeptide […]p[…] (SEQ ID NO: 65) was used as a positive control.
# [4] = test system: PSA, NKX3,1 and TMPRSS2 genes; assay: Testosterone-independent expression of AR-target genes; type: cell-based
# Ack1 [5] = molecular target: T1, Ack1; assay: H4 Tyr51-phosphorylation in EGF-treated HEK293T cells (IP/immunoblot); type: cell-based; set-up: endogenous in cells; host or cells: HEK293T; conditions: serum starved HEK293T, EGF+AIM-100
# Method: To examine whether H4 is a Ack1 kinase substrate, cells were treated with EGF or EGF+Ack1 inhibitor, AIM-100 (Mahajan, K., et al. Prostate 70, 1274-1285 (2010)). Specifically, serum starved HEK293T were treated with EGF or EGF+AIM-100 and cells were harvested. […] Equal amounts of lysates were immunoblotted with H4 antibody or pTyr284-Ack1 antibody.
# Ack1 [6] = molecular target: T2, Ack1 (Homo sapiens, UniProt Q07912, E346K); type: biochemical; conditions: 5 uM for 1 hour at 30° C.
# T2 construct: HA; made in house
# T2 sequence (Q07912 whole entry E346K): as the sequence (Q07912 whole entry) above, with E346K counted along it
# Method: To test whether Ack1 directly phosphorylates H4, in vitro kinase assay (Mahajan, K., et al. PLoS One 5, e9646 (2010)) was performed. […] HEK293 cells were treated with EGF or EGF+AIM-100 (5 uM, 14 hour) and lysates were immunoprecipitated with Ack1 antibodies followed by immunoblotting with H4 antibodies.
# Ack1 [7] = assay: Ack1 phosphorylation of histone H3 at Tyr99 in ligand-treated cell lines; type: cell-based
# Source text: The discovery was made that Ack1 phosphorylates histone H3 at tyrosine 99. To delineate functional consequences of H3 Ty99-phosphorylation, phospho-antibodies were raised. […] Thus, marking of chromatin with H3-Tyr99-phosphorylation within AR-target gene promoters may suppress repressive dimethylation leading to transcriptional activation in androgen-deprived environment of CRPC tumors. This study uncovers a previously unknown mechanism of regulation of pTyr267-AR-target gene expression, which can be therapeutically reversed by suppression of Ack1/AR/pTyr99-H3 signaling by AIM-100.
# Xenopus laevis embryos = assay: Xenopus embryo injection, gastrulation/epiboly phenotype
# Source text: Table 4 provides the phenotype distribution for surviving embryos (raw data are identical to those in Table 3).
# [8] = test system: WEE1 expressing cancer cell lines; conditions: cited from earlier work
# [9] = test system: NPAT and RNA polymerase II at site II; assay: ChIP-qPCR with NPAT or RNA polymerase II antibodies at Site II, synchronized MEFs; type: cell-based, mouse; conditions: 6.30 hours post-release
# Method: (§1) As a first step, extensive standardization of pTyr37-H2B antibodies were performed for its usage in ChIP. CHIP was performed using the Active Motif kit as per manufacturer's instructions. For ChIP synchronized MEFs were harvested at 0 and 6.30 hour post thymidine release (5×10^7 cells). Cells pellets were lysed in RLB buffer (Mahajan, N. P. et al. Proc. Nat. Acad. Sci. U.S.A. 104, 8438-8443 (2007); Mahajan, K. et al. Prostate 70, 1274-1285 (2010)) on ice for 10 minutes and sonicated for 25 seconds to shear DNA to an average length of 300-500 bp. The soluble chromatin was incubated overnight at 4° C. with pTyr37-H2B antibody. 20 μl of protein-A agarose was added and the beads were washed sequentially and DNA was eluted. Genomic DNA (Input) was prepared by treating aliquots of chromatin with RNase, proteinase-K followed by ethanol precipitation. Pellets were resuspended and the resulting DNA was quantified on a NanoDrop spectrophotometer. Extrapolation to the original chromatin volume allowed quantitation of the total chromatin yield. An aliquot of chromatin (20-30 μg) was pre-cleared with protein-A agarose beads (Invitrogen). Genomic DNA regions of interest were isolated using pTyr37-H2B antibody. […]
# To understand the potential mechanism of repression of histone transcription the role of NPAT was assessed. […]
# [10] = test system: cancers and cancer cell lines; conditions: cited from earlier work
# [11] = test system: pTyr37-H2B upstream of Hist1 cluster; assay: Native ChIP-qPCR with pTyr37-H2B antibody, Site I and II upstream of Hist1 cluster, synchronized MEFs; type: cell-based, mouse; conditions: 6.30 hours post-release
# Method: MEFs or H1975 were grown to 60-70% confluency in serum rich media. Thymidine is added at a final concentration of 2 mM and incubated for 17 hours. Cells were washed three times with phosphate buffered saline (PBS) and fresh serum containing media was added. After 10 hours, thymidine was added again to 2 mM final concentration. The cells were incubated for 17 hours and washed three times with PBS, replaced with serum containing media and time points were collected.
# as §1, with “Genomic DNA (Input) was prepared by treating aliquots of chromatin with RNase, proteinase-K followed by ethanol precipitation.” left out, “yield.” for “yield. An aliquot of chromatin (20-30 μg) was pre-cleared with protein-A agarose beads (Invitrogen). Genomic DNA regions of interest were isolated using pTyr37-H2B antibody.”
# [12] = test system: core histone genes in Hist1 cluster; assay: Quantitative RT-PCR of core histone transcripts in synchronized MEFs; type: cell-based, mouse; conditions: MK1775 0.625 μM, 14 hr; 8.30 hours post-release
# Method: MEFs or H1975 were grown to 60-70% confluency in serum rich media. Thymidine is added at a final concentration of 2 mM and incubated for 17 hours. Cells were washed three times with phosphate buffered saline (PBS) and fresh serum containing media was added. After 10 hours, thymidine was added again to 2 mM final concentration. The cells were incubated for 17 hours and washed three times with PBS, replaced with serum containing media and time points were collected. All RT reactions were done (Mahajan, K. et al. PLoS One 5, e9646 (2010)) at the same time so that the same reactions could be used for all gene studies. For the construction of standard curves, serial dilutions of pooled sample RNA were used (50, 10, 2, 0.4, 0.08, and 0.016 ng) per reverse transcriptase reaction. One “no RNA” control and one “no Reverse Transcriptase” (No RT) controls were included for the standard curve. Three reactions were performed for each sample: 10 ng, 0.8 ng, and a No RT (10 ng) control. Real-time quantitative PCR analyses were performed using the ABI PRISM 7900HT Sequence Detection System (Applied Biosystems). […] Data were analyzed using SDS software version 2.2.2 and exported into an Excel spreadsheet. […]
# [13] = test system: core histone genes located in Hist1 cluster; assay: qRT-PCR of histone genes in synchronized cells (8-histone gene signature); type: cell-based; conditions: MK1775 0.6 uM, 14 hr; 8.30 hours post-release
# Method: Human cells have 55 distinct histone genes each encoding a fraction of core histones. This study determined histone levels using 20 of these genes. In untreated cells, rapid decrease in transcripts of all of these histone genes was observed when RNA levels of 6.30 hours post-release samples (late S phase) were compared with 8.30 hours post-release (G2/M phase) samples (FIG. 33a-h).
# [14] = Table 3, antibodies 200 ng/em, AIM-100 200 pM/em
compound,measurement,setting,value
c1ccc(-c2oc3ncnc(NC[C@@H]4CCCO4)c3c2-c2ccccc2)cc1 [AIM-100],"recruitment of pTyr-AR to PSA, NKX3,1 and TMPRSS2 promoters",pTyr267-AR,suppressed
same,prostate xenograft tumor growth,[1],mitigated; also recorded: partially suppresses
same,H3K9 and K27 dimethylation and trimethylation,Ack1 [2],increased
same,H3 K9 trimethylation,"Ack1 [2]; LAPC4 cells, 7 uM, 16 hours",increased; also recorded: significant increase
same,H3K9 and K27 dimethylation,"Ack1 [2]; LAPC4 cells, EGF and AIM-100",increased
same,H4 Tyr88-phosphorylation,Ack1 [3],significantly decreased; also recorded: significantly reduced
same,"testosterone-independent expression of PSA, NKX3,1 and TMPRSS2 genes",[4],suppressed
same,H4 pTyr51-phosphorylation,Ack1 [5],almost complete loss
same,H4 pTyr51-phosphorylation,Ack1 [6],abrogated
same,Ack1 phosphorylation of H3 at Tyr99,Ack1 [7],significantly compromised
same,"abn/delay, gastrulation is abnormal or delayed (% of total embryos)",Xenopus laevis embryos; [14],6.7%
same,"abn/delay, gastrulation is abnormal or delayed (number of embryos)",Xenopus laevis embryos; [14],15
same,dead (% of total embryos),Xenopus laevis embryos; [14],43%
same,dead (number of embryos),Xenopus laevis embryos; [14],97
same,"epib blk, epiboly block phenotype (% of total embryos)",Xenopus laevis embryos; [14],29%
same,"epib blk, epiboly block phenotype (number of embryos)",Xenopus laevis embryos; [14],65
same,"epib red, partial phenotype (% of total embryos)",Xenopus laevis embryos; [14],8%
same,"epib red, partial phenotype (number of embryos)",Xenopus laevis embryos; [14],18
same,norm. (% of total embryos),Xenopus laevis embryos; [14],11%
same,norm. (number of embryos),Xenopus laevis embryos; [14],24
same,Tot survivors,Xenopus laevis embryos; Table 4,128
same,abn/delay (% of surviving embryos),"Xenopus laevis embryos; Table 4, surviving embryos",(12%)
same,abn/delay (number of surviving embryos),"Xenopus laevis embryos; Table 4, surviving embryos",15
same,epib blk (number of surviving embryos),"Xenopus laevis embryos; Table 4, surviving embryos",65
same,epib red (number of surviving embryos),"Xenopus laevis embryos; Table 4, surviving embryos",18
same,normal (% of surviving embryos),"Xenopus laevis embryos; Table 4, surviving embryos",19%
same,normal (number of surviving embryos),"Xenopus laevis embryos; Table 4, surviving embryos",24
same,mortality rates,"Xenopus laevis embryos; by the onset of gastrulation, ~20 hours after microinjection at the 2-cell stage, 16° C.",43-45%
same,mortality at the onset of gastrulation versus controls,Xenopus laevis embryos; in vivo,Neither pTyr51-H4 nor AIM-100 lead to increased mortality
same,timing or pattern of early cleavages,Xenopus laevis embryos; in vivo,did not alter
same,"epib blk, epiboly block/involution failure (% of surviving embryos)",Xenopus laevis embryos; surviving embryos,51%
same,"epib red, partial reduced epiboly phenotype (% of surviving embryos)",Xenopus laevis embryos; surviving embryos,14%
same,"epib blk, epiboly block/involution failure (% of surviving embryos)","Xenopus laevis embryos; surviving embryos, listed as AIM 100",(51%)
MK-1775,apoptosis,[8],selectively induce apoptosis
same,recruitment of NPAT and RNA polymerase II,[9],binding was detected
same,"sensitization to DNA damaging agents such as gemcitabine, 5-fluorouracil",[10],able to sensitize
same,occurrence of pTyr37-H2B at site I and II,[11],significantly reduced
same,histone mRNA levels,[12],significant increase
same,histone mRNA levels,[13],did not decrease
